Data published in US11401286B2 (Tetra Discovery Partners, LLC, priority 2012, dated 2022).
Counter-ions that a name gives are not always drawn. Like-named read-outs stand apart in the source and are kept apart here.

Target: PDE4D7 (Homo sapiens (Human), UniProt Q08499)
[1] = read-out: PDE4D7 IC50, PDE4D7 without asterisk

Sequence of PDE4D7 (Q08499 other isoform, or with tags, fused parts or gaps): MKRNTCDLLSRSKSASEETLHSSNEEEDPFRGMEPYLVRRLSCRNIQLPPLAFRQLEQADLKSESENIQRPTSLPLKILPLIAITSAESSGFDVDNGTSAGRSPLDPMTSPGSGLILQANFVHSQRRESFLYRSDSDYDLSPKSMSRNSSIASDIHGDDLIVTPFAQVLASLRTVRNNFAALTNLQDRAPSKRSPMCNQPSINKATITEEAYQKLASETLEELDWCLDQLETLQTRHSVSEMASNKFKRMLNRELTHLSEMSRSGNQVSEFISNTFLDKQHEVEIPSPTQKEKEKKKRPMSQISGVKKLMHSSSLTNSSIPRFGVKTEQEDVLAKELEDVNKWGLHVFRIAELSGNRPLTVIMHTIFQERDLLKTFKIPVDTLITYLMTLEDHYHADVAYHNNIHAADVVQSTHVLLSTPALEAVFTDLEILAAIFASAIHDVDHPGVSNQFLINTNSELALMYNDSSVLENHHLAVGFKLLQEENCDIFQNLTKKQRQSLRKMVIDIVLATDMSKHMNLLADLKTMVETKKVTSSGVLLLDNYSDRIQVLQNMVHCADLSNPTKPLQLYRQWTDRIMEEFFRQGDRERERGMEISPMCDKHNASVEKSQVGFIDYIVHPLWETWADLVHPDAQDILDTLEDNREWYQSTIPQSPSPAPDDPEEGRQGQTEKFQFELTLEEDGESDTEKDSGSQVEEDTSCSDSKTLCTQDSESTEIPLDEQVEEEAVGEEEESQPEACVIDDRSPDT

Row | SMILES | IC50 [1] [nM] | IC50 [nM]
1 | CC(CO)Oc1ccc(Nc2cc(-c3cccc(Cl)c3)nc3c2CCC3)cc1 (stereo not shown) [Example 117, 2-(4-((2-(3-Chlorophenyl)-6,7-dihydro-5H-cyclopenta[b]pyridin-4-yl)amino)phenoxy)propan-1-ol hydrochloride] | > 1000 | –
2 | CN(c1ccc(CC(N)=O)cc1)c1cc(-c2cccc(Cl)c2)nc2c1CCC2 [Example 118, 2-(4-((2-(3-Chlorophenyl)-6,7-dihydro-5H-cyclopenta[b]pyridin-4-yl)(methyl)amino)phenyl)acetamide] | – | > 1000
3 | NC(=O)CCc1ccc(Nc2cc(-c3cccc(Cl)c3)nc3c2CCC3)cc1 [Example 119, 3-(4-((2-(3-chlorophenyl)-6,7-dihydro-5H-cyclopenta[b]pyridin-4-yl)amino)phenyl)propanamide hydrochloride] | > 1000 | –
4 | CNC(=O)Cc1ccc(Nc2cc(-c3cccc(Cl)c3)nc3c2CCC3)cc1 [Example 120, 2-(4-((2-(3-chlorophenyl)-6,7-dihydro-5H-cyclopenta[b]pyridin-4-yl)amino)phenyl)-N-methylacetamide hydrochloride] | > 1000 | –
5 | CN(C)C(=O)Cc1ccc(Nc2cc(-c3cccc(Cl)c3)nc3c2CCC3)cc1 [Example 121, 2-(4-((2-(3-chlorophenyl)-6,7-dihydro-5H-cyclopenta[b]pyridin-4-yl)amino)phenyl)-N,N-dimethylacetamide hydrochloride] | < 1000 | –
6 | NC(=O)C(Cc1ccc(Nc2cc(-c3cccc(Cl)c3)nc3c2CCC3)cc1)C(N)=O [Example 122, 2-(4-((2-(3-Chlorophenyl)-6,7-dihydro-5H-cyclopenta[b]pyridin-4-yl)amino)benzyl)malonamide hydrochloride] | > 1000 | –
7 | CC(Cc1ccc(Nc2cc(-c3cccc(Cl)c3)nc3c2CCC3)cc1)(C(N)=O)C(N)=O [Example 124, 2-(4-((2-(3-Chlorophenyl)-6,7-dihydro-5H-cyclopenta[b]pyridin-4-yl)amino)benzyl)-2-methylmalonamide hydrochloride] | > 1000 | –
8 | NC(=O)Cc1ccc(Cc2cc(-c3cccc(Cl)c3)nc3c2CCC3)cc1 [Example 125, 2-(4-((2-(3-Chlorophenyl)-6,7-dihydro-5H-cyclopenta[b]pyridin-4-yl)methyl)phenyl)acetamide hydrochloride] | > 1000 | –
9 | CC(C)(C(=O)O)c1ccc(Cc2cc(-c3cccc(Cl)c3)nc3c2CCC3)cc1 [Example 126, 2-(4-((2-(3-Chlorophenyl)-6,7-dihydro-5H-cyclopenta[b]pyridin-4-yl)methyl)phenyl)-2-methylpropanoic acid hydrochloride] | > 1000 | –
10 | CC(C)(C(N)=O)c1ccc(Cc2cc(-c3cccc(Cl)c3)nc3c2CCC3)cc1 [Example 127, 2-(4-((2-(3-Chlorophenyl)-6,7-dihydro-5H-cyclopenta[b]pyridin-4-yl)methyl)phenyl)-2-methylpropanamide hydrochloride] | > 1000 | –
11 | CC(C)(CO)c1ccc(Cc2cc(-c3cccc(Cl)c3)nc3c2CCC3)cc1 [Example 128, 2-(4-((2-(3-Chlorophenyl)-6,7-dihydro-5H-cyclopenta[b]pyridin-4-yl)methyl)phenyl)-2-methylpropan-1-ol hydrochloride] | > 1000 | –
12 | CN(C(N)=O)c1ccc(Nc2cc(-c3cccc(Cl)c3)nc3c2CCC3)cc1 [Example 129, 1-(4-((2-(3-Chlorophenyl)-6,7-dihydro-5H-cyclopenta[b]pyridin-4-yl)amino)phenyl)-1-methylurea hydrochloride] | > 1000 | –
13 | NC(=O)CCCc1ccc(Nc2cc(-c3cccc(Cl)c3)nc3c2CCC3)cc1 [Example 130, 4-(4-((2-(3-Chlorophenyl)-6,7-dihydro-5H-cyclopenta[b]pyridin-4-yl)amino)phenyl)butanamide hydrochloride] | > 1000 | –
14 | NC(=O)Cc1ccc(Cc2cc(OC3CCCC3)nc3c2CCC3)cc1 [Example 131, 2-(4-((2-(Cyclopentyloxy)-6,7-dihydro-5H-cyclopenta[b]pyridin-4-yl)methyl)phenyl)acetamide hydrochloride] | > 1000 | –
15 | OCCc1ccc(Nc2cc(-c3ccc[nH]3)nc3c2CCC3)cc1 [Example 132, 2-(4-((2-(1H-Pyrrol-2-yl)-6,7-dihydro-5H-cyclopenta[b]pyridin-4-yl)amino)phenyl)ethanol hydrochloride] | > 1000 | –
16 | NC(=O)Cc1ccc(Nc2cc(-c3ccc[nH]3)nc3c2CCC3)cc1 [Example 133, 2-(4-((2-(1H-Pyrrol-2-yl)-6,7-dihydro-5H-cyclopenta[b]pyridin-4-yl)amino)phenyl)acetamide hydrochloride] | > 1000 | –
17 | NC(=O)Cc1ccc(Nc2cc(-c3cncc(Cl)c3)nc3c2CCC3)cc1 [Example 134, 2-(4-((2-(5-Chloropyridin-3-yl)-6,7-dihydro-5H-cyclopenta[b]pyridin-4-yl)amino)phenyl)acetamide hydrochloride] | > 1000 | –
18 | NC(=O)Cc1ccc(Nc2cc(-c3cccc(Cl)c3)nc(C3CC3)c2)cc1 [Example 139, 2-(4-((2-(3-Chlorophenyl)-6-cyclopropylpyridin-4-yl)amino)phenyl)acetamide hydrochloride] | < 1000 | –
19 | OCCc1ccc(Nc2cc(-c3cccc(Cl)c3)nc(C3CC3)c2)cc1 [Example 140, 2-(4-((2-(3-Chlorophenyl)-6-cyclopropylpyridin-4-yl)amino)phenyl)ethanol hydrochloride] | > 1000 | –

Row | SMILES | IC50 [1] [nM] | IC50 [nM]
20 | COC(=O)Cc1ccc(Cc2cc(-c3cccc(Cl)c3)nc(C(F)(F)F)c2)cc1 [Example 141, Methyl 2-(4-((2-(3-chlorophenyl)-6-(trifluoromethyl)pyridin-4-yl)methyl)phenyl)acetate] | > 1000 | –
21 | OCCc1ccc(Cc2cc(-c3cccc(Cl)c3)nc(C(F)(F)F)c2)cc1 [Example 143, 2-(4-((2-(3-Chlorophenyl)-6-(trifluoromethyl)pyridin-4-yl)methyl)phenyl)ethanol] | > 1000 | –
22 | NC(=O)Cc1ccc(Cc2cc(-c3cccc(Cl)c3)nc(C(F)(F)F)c2)cc1 [Example 144, 2-(4-((2-(3-Chlorophenyl)-6-(trifluoromethyl)pyridin-4-yl)methyl)phenyl)acetamide] | > 1000 | –
23 | NC(=O)Cc1ccc(Nc2cc(-c3cccc(Cl)c3)nc(C(F)(F)F)c2)cc1 [Example 145, 2-(4-((2-(3-Chlorophenyl)-6-(trifluoromethyl)pyridin-4-yl)amino)phenyl)acetamide] | < 1000 | –
24 | OCCc1ccc(Nc2cc(-c3cccc(Cl)c3)nc(C(F)(F)F)c2)cc1 [Example 146, 2-(4-((2-(3-Chlorophenyl)-6-(trifluoromethyl)pyridin-4-yl)amino)phenyl)ethanol] | < 1000 | –
25 | OCCCc1ccc(Nc2cc(-c3cccc(Cl)c3)nc(C(F)(F)F)c2)cc1 [Example 147, 3-(4-((2-(3-Chlorophenyl)-6-(trifluoromethyl)pyridin-4-yl)amino)phenyl)propan-1-ol] | < 1000 | –
26 | NC(=O)Cc1ccc(Nc2cc(-c3ccc(Cl)cc3)nc3c2CCC3)cc1 [Example 148, 2-(4-((2-(4-Chlorophenyl)-6,7-dihydro-5H-cyclopenta[b]pyridin-4-yl)amino)phenyl)acetamide hydrochloride] | > 1000 | –
27 | OCCc1ccc(Nc2cc(-c3ccc(Cl)cc3)nc3c2CCC3)cc1 [Example 149, 2-(4-((2-(4-Chlorophenyl)-6,7-dihydro-5H-cyclopenta[b]pyridin-4-yl)amino)phenyl)ethanol hydrochloride] | > 1000 | –
28 | NC(=O)Cc1ccc(Nc2cc(-c3ccc(F)c(Cl)c3)nc3c2CCC3)cc1 [Example 150, 2-(4-((2-(3-Chloro-4-fluorophenyl)-6,7-dihydro-5H-cyclopenta[b]pyridin-4-yl)amino)phenyl)acetamide hydrochloride] | > 1000 | –
29 | OCCc1ccc(Nc2cc(-c3ccc(F)c(Cl)c3)nc3c2CCC3)cc1 [Example 151, 2-(4-((2-(3-Chloro-4-fluorophenyl)-6,7-dihydro-5H-cyclopenta[b]pyridin-4-yl)amino)phenyl)ethanol hydrochloride] | > 1000 | –
30 | NC(=O)Cc1ccc(Nc2cc(-c3cc(F)cc(Cl)c3)nc3c2CCC3)cc1 [Example 152, 2-(4-((2-(3-Chloro-5-fluorophenyl)-6,7-dihydro-5H-cyclopenta[b]pyridin-4-yl)amino)phenyl)acetamide hydrochloride] | > 1000 | –
31 | OCCc1ccc(Nc2cc(-c3cc(F)cc(Cl)c3)nc3c2CCC3)cc1 [Example 153, 2-(4-((2-(3-Chloro-5-fluorophenyl)-6,7-dihydro-5H-cyclopenta[b]pyridin-4-yl)amino)phenyl)ethanol hydrochloride] | > 1000 | –
32 | OCCc1ccc(Nc2cc(-c3ccc(Cl)c(Cl)c3)nc3c2CCC3)cc1 [Example 154, 2-(4-((2-(3,4-Dichlorophenyl)-6,7-dihydro-5H-cyclopenta[b]pyridin-4-yl)amino)phenyl)ethanol hydrochloride] | > 1000 | –
33 | NC(=O)Cc1ccc(Nc2cc(-c3cc(Cl)ccc3Cl)nc3c2CCC3)cc1 [Example 155, 2-(4-((2-(2,5-Dichlorophenyl)-6,7-dihydro-5H-cyclopenta[b]pyridin-4-yl)amino)phenyl)acetamide hydrochloride] | > 1000 | –
34 | OCCc1ccc(Nc2cc(-c3cc(Cl)ccc3Cl)nc3c2CCC3)cc1 [Example 156, 2-(4-((2-(2,5-Dichlorophenyl)-6,7-dihydro-5H-cyclopenta[b]pyridin-4-yl)amino)phenyl)ethanol hydrochloride] | > 1000 | –
35 | NC(=O)Cc1ccc(Nc2cc(-c3cc(Cl)cc(Cl)c3)nc3c2CCC3)cc1 [Example 157, 2-(4-((2-(3,5-Dichlorophenyl)-6,7-dihydro-5H-cyclopenta[b]pyridin-4-yl)amino)phenyl)acetamide hydrochloride] | > 1000 | –
36 | OCCc1ccc(Nc2cc(-c3cc(Cl)cc(Cl)c3)nc3c2CCC3)cc1 [Example 158, 2-(4-((2-(3,5-Dichlorophenyl)-6,7-dihydro-5H-cyclopenta[b]pyridin-4-yl)amino)phenyl)ethanol hydrochloride] | > 1000 | –
37 | Cc1cccc(-c2cc(Nc3ccc(CC(N)=O)cc3)c3c(n2)CCC3)c1 [Example 159, 2-(4-((2-(m-Tolyl)-6,7-dihydro-5H-cyclopenta[b]pyridin-4-yl)amino)phenyl)acetamide hydrochloride] | > 1000 | –
